Each block holds one compound with its values, some of them ahead of it.
How the values were obtained:
[1] = test system: A549; assay: cells; details: Homo sapiens, A549, 72 h
[2] = test system: A549; assay: Antiinvasive activity in human A549 cells assessed as inhibition of cell invasion by measuring reduction in cell count incubated for 72 hrs by crystal violet staining based transwell assay; assay type: functional; details: dose 0.2-1.8 µM, DDE = dose-dependent effect
[3] = test system: A549; assay: Inhibition of cell migration in human A549 cells assessed as wound recovery at 0.2 uM measured after 24 hrs by inverted microscopic analysis (reference value: 28.2 %); assay type: functional; parameters: scale not given: the % may be the effect or the level left
[4] = test system: A549; assay: Inhibition of cell migration in human A549 cells assessed as wound recovery at 0.6 uM measured after 24 hrs by inverted microscopic analysis (reference value: 28.2 %); assay type: functional; parameters: scale not given: the % may be the effect or the level left
[5] = test system: A549; assay: Inhibition of cell migration in human A549 cells assessed as wound recovery at 1.8 uM measured after 24 hrs by inverted microscopic analysis (reference value: 28.2 %); assay type: functional; parameters: scale not given: the % may be the effect or the level left
[6] = test system: A549; assay: Inhibition of cell migration in human A549 cells assessed as wound recovery at 0.2 uM measured after 72 hrs by inverted microscopic analysis (reference value: 53.4 %); assay type: functional; parameters: scale not given: the % may be the effect or the level left
[7] = test system: A549; assay: Inhibition of cell migration in human A549 cells assessed as wound recovery at 0.6 uM measured after 72 hrs by inverted microscopic analysis (reference value: 53.4 %); assay type: functional; parameters: scale not given: the % may be the effect or the level left
[8] = test system: A549; assay: Inhibition of cell migration in human A549 cells assessed as wound recovery at 1.8 uM measured after 72 hrs by inverted microscopic analysis (reference value: 53.4 %); assay type: functional; parameters: scale not given: the % may be the effect or the level left
[9] = Stability in pooled human plasma assessed as parent compound remaining at 2 uM measured after 10 mins by LC-MS/MS analysis (reference value: 100%); assay type: ADME, cell-free; details: read-out: Stability
[10] = Stability in pooled human plasma assessed as parent compound remaining at 2 uM measured after 30 mins by LC-MS/MS analysis (reference value: 100%); assay type: ADME, cell-free; details: read-out: Stability
[11] = Stability in pooled human plasma assessed as parent compound remaining at 2 uM measured after 60 mins by LC-MS/MS analysis (reference value: 100%); assay type: ADME, cell-free; details: read-out: Stability
[12] = Stability in pooled human plasma assessed as parent compound remaining at 2 uM measured after 120 mins by LC-MS/MS analysis (reference value: 100%); assay type: ADME, cell-free; details: read-out: Stability
[13] = Stability in pooled human plasma assessed as half life at 2 uM measured upto 120 mins by LC-MS/MS analysis; assay type: ADME, cell-free
[14] = Apparent permeability across apical to basolateral side in human Caco-2 cells at 2 uM incubated for 2 hrs by LC-MS/MS analysis; assay type: ADME, cell-based
[15] = Apparent permeability across basolateral to apical side in human Caco-2 cells at 2 uM incubated for 2 hrs by LC-MS/MS analysis; assay type: ADME, cell-based

IC50 [1]: 270 nM
Compound: CNC(=O)c1ccccc1Nc1nc(Nc2ccc(N3CCN(CCCCC(=O)Nc4cccc5c4CN(C4CCC(=O)NC4=O)C5=O)CC3)cc2OC)ncc1Cl (configuration not stated)

IC50 [1]: 310 nM
Compound: CNC(=O)c1ccccc1Nc1nc(Nc2ccc(N3CCN(CCCCCC(=O)NCCNc4cccc5c4C(=O)N(C4CCC(=O)NC4=O)C5=O)CC3)cc2OC)ncc1Cl (configuration not stated)

IC50 [1]: 3420 nM
Compound: CNC(=O)c1ccccc1Nc1nc(Nc2ccc(N3CCN(CCCCC(=O)Nc4ccc5c(c4)C(=O)N(C4CCC(=O)NC4=O)C5=O)CC3)cc2OC)ncc1Cl (configuration not stated)

IC50 [1]: 2250 nM
Compound: CNC(=O)c1ccccc1Nc1nc(Nc2ccc(N3CCN(CCCCCCCCNC(=O)CNc4cccc5c4C(=O)N(C4CCC(=O)NC4=O)C5=O)CC3)cc2OC)ncc1Cl (configuration not stated)

IC50 [1]: 1310 nM
Compound: CNC(=O)c1ccccc1Nc1nc(Nc2ccc(N3CCOCC3)cc2OC)ncc1Cl
Activity [2]: Dde

IC50 [1]: 790 nM
Compound: CNC(=O)c1ccccc1Nc1nc(Nc2ccc(N3CCN(CCCCCCC(=O)Nc4cccc5c4C(=O)N(C4CCC(=O)NC4=O)C5=O)CC3)cc2OC)ncc1Cl (configuration not stated)

IC50 [1]: 3580 nM
Compound: CNC(=O)c1ccccc1Nc1nc(Nc2ccc(N3CCN(CCCCCCCCCC(=O)Nc4cccc5c4C(=O)N(C4CCC(=O)NC4=O)C5=O)CC3)cc2OC)ncc1Cl (configuration not stated)

remaining at 10 min, 2 µM [9]: 112%
remaining at 0.5 h, 2 µM [10]: 96.6%
remaining at 1 h, 2 µM [11]: 98.3%
remaining at 2 h, 2 µM [12]: 86.2%
half-life at 2 µM [13]: > 4.82 h
Papp A→B at 2 h, 2 µM [14]: 1.4 ×10⁻⁶ cm/s
Papp B→A at 2 h, 2 µM [15]: 4.7 ×10⁻⁶ cm/s
IC50 [1]: 140 nM
Compound: CNC(=O)c1ccccc1Nc1nc(Nc2ccc(N3CCN(CCCCC(=O)Nc4cccc5c4C(=O)N(C4CCC(=O)NC4=O)C5=O)CC3)cc2OC)ncc1Cl (configuration not stated)
Activity [3]: 13.7%
Activity [4]: 11.1%
Activity [5]: 3.6%
Activity [6]: 42.4%
Activity [7]: 33.3%
Activity [8]: 21.7%
Activity [2]: Dde

IC50 [1]: 260 nM
Compound: CNC(=O)c1ccccc1Nc1nc(Nc2ccc(N3CCN(CCCCCC(=O)Nc4cccc5c4C(=O)N(C4CCC(=O)NC4=O)C5=O)CC3)cc2OC)ncc1Cl (configuration not stated)

IC50 [1]: 1350 nM
Compound: CNC(=O)c1ccccc1Nc1nc(Nc2ccc(N3CCN(CCCCCCCCC(=O)Nc4cccc5c4C(=O)N(C4CCC(=O)NC4=O)C5=O)CC3)cc2OC)ncc1Cl (configuration not stated)

IC50 [1]: 4010 nM
Compound: CNC(=O)c1ccccc1Nc1nc(Nc2ccc(N3CCN(CCCCC(=O)NCCNc4cccc5c4C(=O)N(C4CCC(=O)NC4=O)C5=O)CC3)cc2OC)ncc1Cl (configuration not stated)

IC50 [1]: 330 nM
Compound: CNC(=O)c1ccccc1Nc1nc(Nc2ccc(N3CCN(CCCCCCCC(=O)NCCNc4cccc5c4C(=O)N(C4CCC(=O)NC4=O)C5=O)CC3)cc2OC)ncc1Cl (configuration not stated)

— ChEMBL document CHEMBL5120849, “Identification of novel and potent PROTACs targeting FAK for non-small cell lung cancer: Design, synthesis, and biological study” (Eur J Med Chem, 2022)
